The source of these data is PubChem BioAssay AID1419 (Emory University Molecular Libraries Screening Center, 2008).

Calls of active or inactive are those of the source. No rule for the calls is given here. Bounds are passed on as bounds.

This test in a line: EBV protein-peptide binding inhibitors, dose response, biochemical, fluorescence polarization (AID 1419). The settings on record: cell-free protein-peptide binding, 2 h; for fold change: measured here: P channel fold over control, at 54 µM. (In general: In fluorescence polarisation assays a small probe gives low polarisation when free and higher when bound to something large.)

For `C/C(N)=C(/C#N)C(=O)CSc1nnc(Nc2ccccc2)s1`, the IC50 was > 54 µM (inactive) and the fold change came out at 0.95.
For `Cc1cc(N2CCCC2)ccc1C=C(C#N)C#N`, in that order: 1.86 µM and 15.3.
Consider `CC1=C/C(=C\c2ccc(Br)o2)C(=O)O1`, for which the IC50 was > 54 µM (inactive) and the fold change turned out to be 0.98.
For `Cc1ccc(N=Nc2c(O)n(CN3CCOCC3)c3ccccc23)cc1`, in that order: 2.43 µM and 10.9.
On to `O=c1c(O)cccc2cc(O)c(O)c(O)c12`, for which the IC50 was 2.85 µM and the fold change came out at 1.86.
The matching figures for `COc1ccc(-c2onc3ccc(Br)cc23)cc1`: 0.86 µM and 7.24.
As to `COc1ccc(Cl)cc1CN1CCN(c2nc(C)cc(C)c2C#N)CC1`, the 50% inhibitory concentration (IC50) is 18.9 µM and the fold change was 2.25.
For `CN1C(=O)/C(=C2\SC(=S)N(CCCCCC(=O)O)C2=O)c2ccccc21`, in that order: 52.1 µM (inactive) and 1.07.
For `CCN(CC)c1ccc2oc(=O)c(C)nc2c1`, in that order: 4.76 µM and 9.58.
For `COc1ccc2nc(N3CCC(C)CC3)c(C#N)cc2c1`, in that order: 9.17 µM and 1.94.
For the molecule `CC(C)OC(=O)CC(=O)c1sc2nc3c(cc2c1N)CN(C)CC3`, the IC50 was > 54 µM (inactive) and the fold change worked out at 1.29.
For `Cn1c(=O)c2[nH]c(-c3ccccc3Cl)c(O)c2n(C)c1=O`, the IC50 was 1.99 µM and the fold change amounted to 2.61.
For `CN1CCN(c2ccc([N+](=O)[O-])c3no[n+]([O-])c23)CC1`, in that order: 1.32 µM and 11.6.
Consider `COc1ccc(/C=N/N=C2/CC(C)(C)Cc3n[nH]c(=O)cc32)cc1`, for which the IC50 is 4.15 µM and the fold change was determined as 3.61.
For `CC(C)Oc1ccc(-c2nn(-c3ccccc3)cc2/C=c2\sc3ncnn3c2=O)cc1`, in that order: 1.43 µM and 14.3.
For `O=C(OCCN1C(=O)c2cccc3c(N4CCOCC4)ccc(c23)C1=O)c1cccc(Cl)c1`, in that order: 2.52 µM and 56.6.
The matching figures for `COc1ccc(-c2c(C#N)c(N)nc3sc(C(=O)c4ccc(C)cc4)c(N)c23)cc1`: 23.5 µM and 5.33.
Regarding `N#C/C(=C\C1=C(N2CCOCC2)C(=C\c2ccccc2)/CC1)C(=O)Nc1ccccc1F`, the IC50 was 1.23 µM and the fold change was determined as 2.94.
`CCn1c(COc2ccccc2C)nnc1SCC(=O)N1CCC(C)CC1`: the IC50 is > 54 µM (inactive) and the fold change came out at 0.897.
The matching figures for `CCOC(=O)c1sc2nc3c(SCCC(=O)O)cc(C(=O)c4cc(OC)ccc4O)cn3c(=O)c2c1C`: > 54 µM (inactive) and 1.04.
`CCN(CC)c1ccc(/C=c2/sc3nnc(-c4ccccc4C)n3c2=O)cc1`: the IC50 was 3.39 µM and the fold change was determined as 17.4.
The matching figures for `CC(=O)Nc1cccc(C2=CC(c3ccco3)n3ncnc3N2)c1` (stereo unspecified): 1.48 µM and 20.3.
For `CCCCC1=CC2=C(c3ccco3)C(=O)C(C)(OC(=O)c3ccc(OC)cc3)C(=O)C2=CN1Cc1ccccc1` (stereo unspecified), in that order: > 54 µM (inactive) and 1.7.
For `CC(=O)Oc1ccc2c(c1)O/C(=C\c1ccncc1)C2=O`, in that order: 3.08 µM and 10.9.
Take `COc1ccc(C(=O)Nc2cccc(-c3cc4ccccc4oc3=O)c2)cc1[N+](=O)[O-]`: the IC50 is > 54 µM (inactive) and the fold change was found to be 0.607.
The matching figures for `CCOC(=O)c1ccc2c(c1)C1C=CCC1C(C(=O)O)N2` (stereo unspecified): 4.11 µM and 1.2.
For `COc1cc(N2CCCC2)c(OC)cc1/C=C(/C#N)c1ccc(F)cc1`, in that order: 9.59 µM and 10.8.
Turning to `CN1CC=C2C(C#N)=C(N)C(C#N)(C#N)[C@H](c3cccc(Cl)c3)C2C1` (stereo partly specified), the IC50 was 3.17 µM and the fold change came out at 4.79.
For `COc1ccccc1N1CCN(CC(O)COc2cccc3ccccc23)CC1` (stereo unspecified), in that order: > 54 µM (inactive) and 0.917.
With `N#C/C(=C/c1ccc(-c2ccc(S(N)(=O)=O)cc2)o1)c1nc2ccccc2s1`, the IC50 is > 54 µM (inactive) and the fold change is 30.3.
For `Cc1ccc(N=Nc2c(N)[nH]n3c(=O)cc(-c4ccccc4)nc23)cc1`, in that order: > 54 µM (inactive) and 1.02.
For `COc1ccc(NC(=O)C2Cc3ccccc3CN2C(=O)c2ccccc2)cn1` (stereo unspecified), in that order: 8.48 µM and 3.29.
For `Cc1noc(/C=C/c2ccc(-c3ccccc3Cl)o2)c1[N+](=O)[O-]`, in that order: 13.2 µM and 7.6.
Consider `O=C1CCNc2ccc(-c3ccccc3)cc21`, for which the IC50 is less than 0.42 µM and the fold change amounted to 32.7.
As for `Cc1ccc2c3c(cccc13)-c1ccccc1C2=O`, the IC50 was 2.37 µM and the fold change turned out to be 2.72.
The matching figures for `O=C(Nc1ccc(Cl)c(Cl)c1)Nc1nnc(-c2ccncc2)s1`: 2.54 µM and 1.23.
On to `Cc1ccc(C(=O)ONc2ccc(N=NC(=O)c3ccccc3O)cc2)cc1`, for which the IC50 is 4.35 µM and the fold change was found to be 0.99.
For `Cc1ccc(S(=O)(=O)Nc2ccc(N3CCN(C)CC3)nc2)cc1`, in that order: 3.59 µM and 2.82.
For `Cc1nn(C)c(C)c1N1C(=O)c2cccc3c(N)ccc(c23)C1=O`, in that order: less than 0.42 µM and 203.
The matching figures for `CCN(CC)c1ccc(/C=c2\sc3nnc(-c4ccccc4Cl)n3c2=O)cc1`: 2.65 µM and 16.1.
With `CCCNC(=O)COC(=O)c1[nH]c(C)c(C(=O)OCC)c1C`, the IC50 is > 54 µM (inactive) and the fold change was determined as 0.937.
Regarding `O=C(C1=C(O)C(=O)N(c2ncccn2)C1c1cccs1)c1ccco1` (stereo unspecified), the IC50 was 5.21 µM and the fold change worked out at 1.87.
For `N=C1S/C(=C\c2ccc(-c3cccc(Cl)c3)o2)C(=O)N1c1nccs1`, in that order: 5.78 µM and 2.
The matching figures for `Cc1ccc(NC2=Nc3ccccc3N3C2=Nc2c(c(C)nn2-c2ccccc2)C3c2ccc(O)c(O)c2)cc1` (stereo unspecified): 3.36 µM and 2.84.
For `CCCCCn1nc(-c2ccccc2)c2nc3ccccc3nc21`, the IC50 was 2.92 µM and the fold change is 33.5.
For `CCN(CC)C(=O)/C(=C\c1ccc(Br)cc1)NC(=O)c1ccccc1OC`, in that order: 4.67 µM and 1.15.
For `Cc1nc2ccccc2n2c(O)c(CC(=O)O)cc12`, in that order: > 54 µM (inactive) and 7.32.
For `CSc1nc(N(CCO)CCO)c2sc3nc(-c4ccco4)c4c(c3c2n1)CCC4`, in that order: > 54 µM (inactive) and 1.07.
Regarding `O=C(NCCCn1ccnc1)c1ccc2c(c1)OCCO2`, the IC50 was > 54 µM (inactive) and the fold change is 1.03.
The matching figures for `CCCOc1cc(N(CC)CC)ccc1/C=C(/C#N)c1nc2ccc(C)cc2[nH]1`: 11.8 µM and 12.9.
For `CN(C)c1ccnc2sc(C(=O)c3ccc(Br)cc3)c(N)c12`, in that order: > 54 µM (inactive) and 0.973.
Take `C(=N\NC1=Nc2cccc3cccc1c23)/c1ccccc1`: the IC50 was 16.9 µM and the fold change came to 11.4.
The matching figures for `CC(C)(C)c1ccc(OCC(=O)Nc2ccc3c4c(cccc24)C(=O)NC3=O)cc1`: > 54 µM (inactive) and 2.15.
The matching figures for `CCOc1ccc(-n2c(O)c(C=Nc3ccc(N(CC)CC)cc3)c(=O)[nH]c2=O)cc1`: 7.18 µM and 9.37.
The matching figures for `N=c1oc2ccc3ccccc3c2cc1-c1nc(-c2ccccc2)cs1`: 4.67 µM and 8.37.
As to `Cc1ccc(N2C(=O)C3C(C2=O)C(C(=O)c2ccc(Cl)cc2)N2CCCC32)cc1` (stereo unspecified), the IC50 is > 54 µM (inactive) and the fold change worked out at 2.44.
For the molecule `O=C(O)CCC(=O)NCCC1=c2ccccc2=N/C1=C\c1c(O)n(Cc2ccc(F)cc2)c(=S)[nH]c1=O`, the IC50 is 4.53 µM and the fold change is 1.16.
The matching figures for `Cc1cc[n+](-c2[nH]c(=O)sc2/C=N/NC([S-])=Nc2ccccc2)cc1`: > 54 µM (inactive) and 1.42.
The matching figures for `N#CC1=C(N)OC2=C(CC/C2=C\c2ccc(F)cc2)C1c1ccc(F)cc1` (stereo unspecified): 20 µM and 3.48.
The matching figures for `Fc1ccc(NCc2cccnc2)cc1F`: 2.14 µM and 3.89.
As for `O=C1C(Br)=Cc2cccc3cccc1c23`, the IC50 is 2 µM and the fold change worked out at 7.55.
For `COc1ccccc1N1C(=O)C2C(C(=O)c3ccccc3)=NN(c3ccc(Br)cc3)C2C1=O` (stereo unspecified), in that order: > 54 µM (inactive) and 16.6.
Regarding `CCn1c2ccccc2c2cc(NC(=O)c3ccc(=O)oc3)ccc21`, the IC50 is > 54 µM (inactive) and the fold change was 1.77.
For `CC(=O)N/N=C/c1cc(C(C)(C)C)cc(/C=N/NC(C)=O)c1O`, in that order: 4.05 µM and 3.13.
Consider `CCn1c(O)c(/C=N/N=C/c2ccccc2)c2ccc(C3=NNC(=O)CC3)cc21`, for which the IC50 is 14.8 µM and the fold change stood at 9.01.
For `CC1=NOC(=O)/C1=C\c1ccc(-c2cc(Cl)ccc2Cl)o1`, in that order: 1.49 µM and 4.14.
For `CCCn1c(O)c(N=Nc2ccc3ccccc3n2)c2ccccc21`, in that order: > 54 µM (inactive) and 1.5.
For `CC1CC=C2C(C#N)=C(N)C(C#N)(C#N)C(c3cccs3)C2C1` (stereo unspecified), the IC50 was 12.8 µM and the fold change amounted to 2.49.

As a reminder, the IC50 is the concentration needed to halve the response being measured.
